{
  "source": "patent US20220370556A1",
  "about": "“Method of Treatment” (Volution Immuno Pharmaceuticals SA, priority 2019, published 2022)",
  "key": {"[1]": {"molecular_target": "Human BLT2 G-protein coupled receptor", "settings": "ref. [13]; cited from earlier work"}, "[2]": {"molecular_target": "T1, nomacopan (EV576, OmCI protein, Coversin), Ornithodoros moubata, mature form, amino acids 19 to 168 of SEQ ID NO: 2 (SEQ ID NO: 4) (Ornithodoros moubata, UniProt Q5YD59)", "T1 sequence (Q5YD59 19-168)": "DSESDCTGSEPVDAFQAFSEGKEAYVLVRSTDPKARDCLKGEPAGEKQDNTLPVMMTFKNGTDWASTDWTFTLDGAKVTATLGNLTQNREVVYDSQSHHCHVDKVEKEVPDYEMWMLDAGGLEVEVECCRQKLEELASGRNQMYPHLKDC", "assay": "Fluorescence titration of LTB4 binding to nomacopan", "settings": "100 nM nomacopan in PBS, 20° C., excitation 280 nm, emission 340 nm", "from_the_text": "The ability of a nomacopan-type protein to bind LTB4 may be determined by standard in vitro assays known in the art, for example by means of a competitive ELISA between nomacopan and anti-LTB4 antibody competing for binding to labelled LTB4, by isothermal titration calorimetry or by fluorescence titration. […] For example, binding activity for LTB4 (Caymen Chemicals, Ann Arbor, Mich., USA) in phosphate buffered saline (PBS) can be quantified in a spectrofluorimeter e.g. a LS 50 B spectrofluorimeter (Perkin-Elmer, Norwalk, Conn., USA). This may be carried out by may be carried out as follows:\nPurified 100 nM solutions of nomacopan, in 2 mL PBS were applied in a quartz cuvette (10 mm path length; Hellma, Mühlheim, Germany) equipped with a magnetic stirrer.\nTemperature was adjusted to 20° C. and, after equilibrium was reached, protein Tyr/Trp fluorescence was excited at 280 nm (slit width: 15 nm). The fluorescence emission was measured at 340 nm (slit width: 16 nm) corresponding to the emission maximum. A ligand solution of 30 μM LTB4 in PBS was added step-wise, up to a maximal volume of 20 μL (1% of the whole sample volume), and after 30 s incubation steady state fluorescence was measured. […]"}, "[3]": {"molecular_target": "Human BLT1 G-protein coupled receptor", "settings": "high affinity receptor, ref. [12]; cited from earlier work"}},
  "data": [
    {"compound": "CCCCC/C=C\\C[C@@H](O)/C=C/C=C/C=C\\[C@@H](O)CCCC(=O)O", "note": "[LTB4, Leukotriene B4]", "values": [
      {"measurement": "Kd", "setting": "[1]", "value": 23, "unit": "nM"},
      {"measurement": "Kd", "setting": "[2]", "value": "0.1 to 0.3", "unit": "nM"},
      {"measurement": "Kd", "setting": "[3]", "value": "0.39 to 1.5", "unit": "nM"}
    ]}
  ]
}
